# Laboratory results taken from US8933070B2, “Methods of targeting PTEN mutant diseases and compositions therefor” (University Health Network, priority 2010, dated 2015).
# Where “and” joins values, the source holds several entries; their conditions need not be identical. Equal entries are not always repeated.
# How the values were obtained:
# [1] = system: HCT116 p53 wild-type cells
# Protocol: (§1) Breast cancer cells were seeded at various concentrations, ranging from 1×10^5 to 2.5×10^5 per well according to cell growth rate, into 6-well plates 24 hours before siRNA and/or compound treatment. Each 10 mM stock solution in 100% DMSO of the compounds was diluted with Opti-MEM I Reduced-Serum Medium (Invitrogen, Canada) and added to the cells to the stated final concentrations. Control cells received 0.001% DMSO alone. Where indicated, 40 nM PTEN siRNAs (siPTEN) (QIAGEN, Canada; sense sequence: 5′-[…]-3′) or 40 nM control siRNA (siCTRL) (QIAGEN, Canada) were transfected into cells using Lipofectamine 2000 according to the manufacturer's protocol (Invitrogen, Canada). Prior to analysis, cells were trypsinized, washed in 1× phosphate-buffered saline (PBS) and centrifuged. […] All samples were read in a FACSCalibur flow cytometer (Becton, Dickinson and Company), and data analyzed using FloJo software (Tree Star, Inc.).
# (§2) To explore if PTEN status may be a contributing factor in determining if PLK4 inhibitor treatment induces a cell death response in cancer cells, a test of whether reducing the levels of endogenous PTEN would sensitize HCT116 cells (either p53 wild-type or negative) to PLK4 compound-induced death (FIG. 7) was performed. […] After two days of inhibitor treatment, the percentage of sub-G1 cells was measured by cell cycle analysis.
# [2] = system: HCT116 p53 negative cells
# Protocol: as §1, §2
# [3] = system: HCT116 p53^−/− colon cancer cell line; assay: Cell growth inhibition, SRB assay, extended panel; format: cell-based; conditions: Homo sapiens, HCT-116, read-out: GI50 Range HCT116 p53^−/−
# Protocol: (§3) Breast cancer cells (MCF-7, MDA-MB-468 and HCC1954), colon cancer cells (SW620) and lung cancer cells (A549), together with human mammary epithelial primary cells (HMEC) were seeded (1000 to 4000 per 80 μl per well depending on the cell growth rate) into 96-well plates 24 hours before compound overlay. Compounds were prepared as 10 mM stock solutions in 100% DMSO which were diluted with DMEM (Dulbecco's Modified Eagle's Medium) cell growth Medium (Invitrogen, Canada) containing 10% FBS (Fetal Bovine Serum) to concentrations ranging from 50 nM to 250 μM. Aliquots (20 μl) from each concentration were overlaid to 80 μl of the pre-seeded cells in the 96-plates to make final concentrations of 10 nM to 50 μM. The cells were cultured for 5 days before the Sulforhodamine B (SRB) assay was performed to determine the compound's cell growth inhibition activity.
# (§4) Sulforhodamine B (Sigma, Canada) is a water-soluble dye that binds to the basic amino acids of cellular proteins. Thus, colorimetric measurement of the bound dye provides an estimate of the total protein mass that is related to the cell number. The cells are fixed in situ by gently aspirating off the culture media and adding 50 μl ice cold 10% Trichloroacetic Acid (TCA) per well and incubated at 4° C. for 30-60 min. The plates are washed with water five times and allowed to air dry for 5 min. Addition of 50 μl 0.4% (w/v) SRB solution in 1% (v/v) acetic acid to each well and incubatation for […] at RT completes the staining reaction. Following staining, plates are washed four times with 1% acetic acid to remove unbound dye and then allowed to air dry for 5 min. The stain is solubilized with 100 μl of 10 mM Tris pH 10.5 per well. Absorbance is read at 570 nm.
# (§5) The percentage (%) of relative growth inhibition was calculated by comparing to DMSO-treated only cells (100%). GI50's were determined for compounds with cytotoxic activity. The GI50 was calculated using GraphPad PRISM software (GraphPad Software, Inc., USA).
# (§6) In addition to the cell lines tested as described above, selected compounds have been assayed against an extended panel. These include: breast cancer cell lines (T-47D, MDA-MB-231, Hs578T, 8T-474, SKBr-3 and HCC1954), a lung cancer cell line (H358), brain cancer cell lines (A172, Hs683 and SK-N-SH), colon cancer cell lines (Colo 205, HCT-15, HCT116 p53^+/+ and HCT116 p53^−/−), ovarian cancer cell lines (OVCAR-3, SK-OV-3 and SW626), a melanoma cell line (518A2), a prostate cancer cell line (PC-3) and an immortalized breast cell line (184A1). The SRB assay described above was used to assay test compounds against the extended panel (Table 6).
# [4] = system: HCT116 p53^+/+ colon cancer cell line; assay: Cell growth inhibition, SRB assay, extended panel; format: cell-based; conditions: Homo sapiens, HCT-116, read-out: GI50 Range HCT116 p53^+/+
# Protocol: as §3, §4, §5, §6
# [5] = system: HCT-15 colon cancer cell line; assay: Cell growth inhibition, SRB assay, extended panel; format: cell-based; conditions: Homo sapiens, HCT-15, read-out: GI50 Range HCT-15
# Protocol: as §3, §4, §5
# (§7) The SRB assay described above was used to assay test compounds against the extended panel (Table 6).
# [6] = system: SW626 ovarian cancer cell line; assay: Cell growth inhibition, SRB assay, extended panel; format: cell-based; conditions: Homo sapiens, SW626, read-out: GI50 Range SW626
# Protocol: as §3, §4, §5, §7
# [7] = system: 184A1 immortalized breast cell line; assay: Cell growth inhibition, SRB assay, extended panel; format: cell-based; conditions: 184A1, read-out: GI50 Range 184A1
# Protocol: as §3, §4, §5, §7
# [8] = system: T-47D breast cancer cell line; assay: Cell growth inhibition, SRB assay, extended panel; format: cell-based; conditions: Homo sapiens, T47D, read-out: GI50 Range T-47D
# Protocol: as §3, §4, §5, §7
# [9] = system: SKBr-3 breast cancer cell line; assay: Cell growth inhibition, SRB assay, extended panel; format: cell-based; conditions: Homo sapiens, SK-BR-3, read-out: GI50 Range SKBr-3
# Protocol: as §3, §4, §5, §7
# [10] = system: OVCAR-3 ovarian cancer cell line; assay: Cell growth inhibition, SRB assay, extended panel; format: cell-based; conditions: Homo sapiens, OVCAR-3, read-out: GI50 Range OVCAR-3
# Protocol: as §3, §4, §5, §7
# [11] = system: A172 brain cancer cell line; assay: Cell growth inhibition, SRB assay, extended panel; format: cell-based; conditions: Homo sapiens, A 172, read-out: GI50 Range A172
# Protocol: as §3, §4, §5, §7
smiles,measurement,setting,value
COc1ccc2c(c1)[C@@]1(C[C@@H]1c1ccc3c(-c4ccc(N5CCN(C)CC5)nc4)n[nH]c3c1)C(=O)N2 (racemic) [Compound 2],percentage of sub-G1 cells,[1],7.1% and 15.9%
same,percentage of sub-G1 cells,[2],5.4% and 10.3%
COc1ccc2c(c1)/C(=C\c1ccc3c(/C=C/c4ccc(N5CCN(C)CC5)nc4)n[nH]c3c1)C(=O)N2 [Compound 3],GI50,[3],< 5 µM
same,GI50,[4],< 5 µM
same,GI50,[5],< 5 µM
same,GI50,[6],< 5 µM
same,GI50,[7],< 5 µM
same,GI50,[8],< 5 µM
same,GI50,[9],< 5 µM
same,GI50,[10],< 5 µM
same,GI50,[11],< 5 µM
